Data: US20260053837A1, “NICOTINAMIDE-RIBOSIDE AND PTEROSTILBENE COMBINATIONS TO TREAT OSTEOARTHRITIS” (The Regents of the University of California, priority 2022, published 2026)

Assays:
injury-induced OA model = assay: pain behavior in injury-induced OA model (DMM surgery; Von Frey test, static weight bearing); format: in vivo, mice; details: NR 400 mg/kg/day, PT 80 mg/kg/day
Procedure: In vivo studies were designed to determine if oral supplementation of NR+PT (5:1) with NR at 400 mg/kg/day (the commonly used dose in animal studies) and PT at 80 mg/kg/day is better than NR alone (400 mg/kg/day) or PT alone (80 mg/kg/day), in limiting cartilage degradation and reducing pain in an injury-induced OA model. […] Because synergistic or additive effect of NR+PT combination was not initially observed, in vitro studies tested the combination of NR and PT at different ratio (NR:PT, 1:1, 2:1, 4:1, 6:1) and different concentrations (based on PT concentration at 25, 50 and 100 uM) on chondrocyte response to IL-1beta. Because IL-1b is known to induce nitric oxide (NO) production in chondrocytes, NO release (measured from the conditioned media) was used as a readout. It was determined that NR+PT at 2:1 ratio had the best efficacy in inhibition of IL-1b induced NO release, particularly for NR at 0.1 mM and PT at 0.05 mM. […] See, FIGS. 1 and 2. C57BL/6J mice at 12 weeks of age were subjected to joint injury via destabilization of medial meniscus (DMM) surgery through transection of meniscotibial ligament. Sham surgery (just skin incision) was performed on separate group of mice. […] Pain-like behaviors was evaluated at baseline (1 weeks before the surgery) and 2, 4, 6, 8 and 10 weeks after DMM surgery. • 1. […]

[1] = cited from earlier work

For NC(=O)c1ccc[n+]([C@@H]2O[C@H](CO)[C@@H](O)[C@H]2O)c1 [NR, nicotinamide riboside], the “efficacy on pain, comparison among treatment groups” value (injury-induced OA model; NR+PT 5:1, gavage daily) is listed as “slightly better efficacy”, the “pain compared to the non-treated controls” value (injury-induced OA model; NR+PT 5:1, gavage daily after DMM surgery) is listed as “significantly less pain” and the “reduction of conversion of NR to NAM” value ([1]; germ-free mice after oral intake) is listed as 3 fold. For the same compound, the “stability of NR in gut and circulation” value ([1]; mouse, in vivo) was “rapidly degraded to NAM”.
